The test system of one assay is ARIP cells. Description: RT-PCR of islet β-cell specific transcripts, ARIP cells. Conditions: Exendin-9 100 nM for 72 h. Format: cell-based, rat. How it is done:
(§1) After the treatment of ARIP and PANC-1 cells with GLP-1, Exendin-9, or vehicle, for the described length of time and the various doses, the culture medium was removed and the cells were washed (twice) with serum-free medium. Total RNA was isolated using the TRiazol-method (Gibco-BRL), and treated with DNase (Amplification Grade, GibcoBRL) in 20 mmol/l Tris-HCL (pH 8.4), 2 mmol/l MgCl2, and 50 mmol/l KCl to remove any traces of contaminating genomic DNA. RNA (2.5 μg) was then subjected to reverse transcription (RT reagents; Promega; Madison, Wis.). RT-PCR was undertaken in a volume of 50 μl of buffer containing 50 mmol/l KCl, 10 mmol/l Tris-HCl, 3.5 mmol/l MgCl2, 200 μmol/l each dNTPs, and 0.4 μmol/l each of sense and antisense primers to rat or human insulin (depending on the specific cell from which the RNA was extracted). Amplification was performed for 30 cycles at the denaturing temperature of 94° C. for 1 min, annealing temperature of 60° C. for 45 sec, and an extension temperature of 72° C. for 1 min. […] These included more irregular and variable cell shapes, with a cytoplasm less homogenous and “rougher” in appearance than control culture.
(§2) Treatment with GLP-1 induces the differentiation of ductal epithelial cells into insulin-producing cells. FIG. 2 illustrates a series of cell cultures grown with or without GLP-1 (10 nM) for 72 h. […] Preabsorption of the antibody with an excess of human recombinant insulin prevented the staining of insulin-positive GLP-1 treated cells (data not shown). While treatment with GLP-1 turned the majority of ARIP cells into […] For β-actin, the annealing temperature was raised to 64° C. for 1 min and gene-specific primers were used. For GLP-1-receptor (GLP-R) the annealing temperature used was 55° C. All other experimental conditions to amplify GLUT2, glucokinase, and GLP-R mRNAs were identical to those described for the amplification of insulin mRNA. RT and PCR conditions for human transcripts were identical to those described for rat mRNAs.
(§3) Southern blotting with species-specific full length cDNA probes for insulin, GLUT-2, glucokinase, GLP-1 receptor and β-actin was performed as previously described. Y. Wang, R. Perfetti, N. H. Greig, H. W. Holloway, K. A. DeOre, C. Montrose-Rafizadeh, D. Elahi, J. M. Egan, “Glucagon-like peptide-1 can reverse the age-related decline in glucose tolerance in rats.” J Clin Invest 99:2883-2889, 1997.

Another assay concerns PANC-1/IDX-1 cells. Put plainly: RT-PCR of islet β-cell specific transcripts, PANC-1/IDX-1 cells. Format: cell-based, human. Conditions: Exendin-9 100 nM for 72 h. As to the method: PANC-1 cells were transfected with a pcDNA3 construct (Invitrogen; Carlsbad, Calif.) harboring the wild-type full-length IDX-1 cDNA using LipoTAXI (Catalog N. 204110; Mammalian Transfection Kit, Stratagene; La Jolla, Calif.). Control cells were transfected with the vector alone. The selection of positive (i.e. transfected) cells was carried out by culturing the cells in the presence of 400 μg/ml of G418 sulfate (GN-04, Omega; Tarzana, Calif.).
as §1, §2, §3

The next assay deals with diabetic rats. Particulars: adult animals after subtotal pancreatectomy; cited from earlier work.

Turning to “Exendin-9: the peptide receptor antagonist of GLP-1”, the “effect on expression of β-cell-specific genes” value with ARIP cells was “inhibited the expression of GLUT-2, insulin and glucokinase”; in the assay with PANC-1/IDX-1 cells it was “inhibited the expression of GLUT-2, insulin and glucokinase”.
For “exendin4: an analog of the incretin hormone glucagon-like-peptide-1”, the “effect on islet mass” value in the assay with diabetic rats is recorded as “increase islet mass”.
